In ChEMBL document CHEMBL1122594, “Parasite enzymes as potential targets for antiparasitic chemotherapy” (J Med Chem, 1984) one finds Activity, Km and Ki data, which are given here for five compounds.

A word on the Km: it is the concentration of substrate that gives half-maximal velocity. As usually defined, the Ki is the equilibrium dissociation constant of an inhibitor or competing ligand from its target.

The species entered for assay [1] is Gallus gallus. The assay is described as follows: Anticoccidial activity against toxoplasmosis in chicken; no activity. The class given is functional, organism-based.
Assay [2] in a line: Anticoccidial activity against toxoplasmosis in cattle; no activity. The class given is functional.
Assay [3] in a line: (§1) Enzymatic activity was determined.
Assay [4] can be described thus: as §1. This is another data set of the same source.

Calls of active or inactive are those of the source. The calls are words filed in the database; no cut-off is given here.

As to `CCCc1ncc(C[n+]2ccccc2C)c(N)n1`, the outcome in assay [1] and in assay [2] was inactive. With `Nc1ccc(C(=O)O)cc1`, the Km in assay [3] stood at 1.5 µM. As to `N=C(N)NS(=O)(=O)c1ccc(N)cc1` [SULFAGUANIDINE], the Ki in assay [4] turned out to be 69 µM. This lies in the double-digit micromolar range. The compound `Nc1ccc(S(N)(=O)=O)cc1` [SULFANILAMIDE] displayed an inhibition constant (Ki) in assay [4] of 130 µM. For `Nc1ccc(S(=O)(=O)Nc2nccs2)cc1` [SULFATHIAZOLE], the Ki in assay [4] was found to be 14 µM.
